From PMC6261308 (Advanced functional materials, 2018)

Assay: Acute toxicity: hemograms and serum biochemistry
Format: in vivo, Balb/c mice
Conditions: 2.5 mg kg^−1 of drug content three times a week

## COc1cccc2c1C(=O)c1c(O)c3c(c(O)c1C2=O)C[C@@](O)(/C(CO)=N/NC(=O)CCCCCN1C(=O)C=CC1=O)C[C@@H]3O[C@H]1C[C@H](N)[C@H](O)[C@H](C)O1 [aldox, aldoxorubicin]
  serum creatine kinase (CK) level: increased CK level
